How the values were obtained:
Assay in all cases: relative viability (nuclei count vs DMSO), 5 days (fraction); higher = more cells survive
Zosuquidar + Navitoclax = compound: O[C@@H](COc1cccc2ncccc12)CN1CCN([C@@H]2c3ccccc3[C@@H]3[C@H](c4ccccc42)C3(F)F)CC1 [Zosuquidar] + CC1(C)CCC(c2ccc(Cl)cc2)=C(CN2CCN(c3ccc(C(=O)NS(=O)(=O)c4ccc(N[C@H](CCN5CCOCC5)CSc5ccccc5)c(S(=O)(=O)C(F)(F)F)c4)cc3)CC2)C1 [Navitoclax] (partner 0.5 µM)
Method in brief: (§1)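 Lung cancer cell lines were pin-tool dosed in 1536-well plates on the day after seeding, with either a lone drug or a fixed anchor-drug dose plus five library-drug doses (not always all listed) in √10 steps. Nuclei were counted on 4× images after 5 days. Relative viability is the ratio of treated-well to vehicle-well nuclei counts, with each value a median of duplicate plates.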

Zosuquidar + Phenformin = compound: O[C@@H](COc1cccc2ncccc12)CN1CCN([C@@H]2c3ccccc3[C@@H]3[C@H](c4ccccc42)C3(F)F)CC1 [Zosuquidar] + N=C(N)NC(=N)NCCc1ccccc1 [Phenformin] (partner 250 µM)
Method in brief: as §1

Kobe2602 + Bortezomib = compound: C1=CC(=CC=C1NC(=S)NNC2=C(C=C(C=C2[N+](=O)[O-])C(F)(F)F)[N+](=O)[O-])F [Kobe2602] + CC(C)C[C@H](NC(=O)[C@H](Cc1ccccc1)NC(=O)c1cnccn1)B(O)O [Bortezomib] (partner 0.002 µM)
Method in brief: as §1

Kobe2602 + Crizotinib = compound: C1=CC(=CC=C1NC(=S)NNC2=C(C=C(C=C2[N+](=O)[O-])C(F)(F)F)[N+](=O)[O-])F [Kobe2602] + C[C@@H](Oc1cc(-c2cnn(C3CCNCC3)c2)cnc1N)c1c(Cl)ccc(F)c1Cl [Crizotinib] (partner 1 µM)
Method in brief: as §1

How did the relative viability (Zosuquidar + Navitoclax; first compound 0.01 µM) turn out when UMC-11 was run?
Its relative viability is 0.323.

And the relative viability (Zosuquidar + Navitoclax; first compound 0.03162 µM)?
The relative viability was 0.294.

What about the relative viability (Zosuquidar + Navitoclax; first compound 0.1 µM) of the same cell line?
Its relative viability is 0.341.

What about the relative viability (Zosuquidar + Navitoclax; first compound 0.3162 µM) of the same cell line?
Its relative viability is 0.339.

What about the relative viability (Zosuquidar + Navitoclax; first compound 1 µM) of the same cell line?
Its relative viability is 0.292.

What about the relative viability (Zosuquidar + Phenformin; first compound 0.01 µM) of the same cell line?
The relative viability was 0.32.

And the relative viability (Zosuquidar + Phenformin; first compound 0.03162 µM)?
The relative viability was 0.331.

And the relative viability (Zosuquidar + Phenformin; first compound 0.1 µM)?
Its relative viability is 0.441.

What about the relative viability (Zosuquidar + Phenformin; first compound 0.3162 µM) of the same cell line?
The relative viability was 0.386.

And the relative viability (Zosuquidar + Phenformin; first compound 1 µM)?
The relative viability was 0.324.

And the relative viability (Kobe2602 + Bortezomib; first compound 0.2 µM)?
Its relative viability is 0.779.

And the relative viability (Kobe2602 + Bortezomib; first compound 0.6325 µM)?
Its relative viability is 0.819.

And the relative viability (Kobe2602 + Bortezomib; first compound 2 µM)?
The relative viability was 0.795.

And the relative viability (Kobe2602 + Bortezomib; first compound 6.325 µM)?
Its relative viability is 0.628.

What about the relative viability (Kobe2602 + Bortezomib; first compound 20 µM) of the same cell line?
The relative viability was 0.645.

And the relative viability (Kobe2602 + Crizotinib; first compound 0.2 µM)?
Its relative viability is 0.578.

What about the relative viability (Kobe2602 + Crizotinib; first compound 0.6325 µM) of the same cell line?
Its relative viability is 0.545.

And the relative viability (Kobe2602 + Crizotinib; first compound 2 µM)?
The relative viability was 0.672.

And the relative viability (Kobe2602 + Crizotinib; first compound 6.325 µM)?
Its relative viability is 0.619.

What about the relative viability (Kobe2602 + Crizotinib; first compound 20 µM) of the same cell line?
The relative viability was 0.639.

Reference: the supplement of paper PMC10307832
